Source: patent US5610174A, “Use of α1A -selective adrenoceptor agonists for the treatment of urinary incontinence” (priority 1995, dated 1997)
Like-named read-outs stand apart in the source and are kept apart here.

How the values were obtained:
human α2B adrenoceptor = biological target: T1, human α2B adrenoceptor (Homo sapiens, UniProt P18089); experiment: Inhibition of forskolin stimulated adenylyl cyclase, α2B; type: cell-based; parameters: expressed in transfected cells; host or cells: Y1 cells, line Ya2B-2 (ATCC CRL 11888); details: for Emax: read-out: intrinsic activity (i.a.) α2B
T1 sequence (P18089 1-450): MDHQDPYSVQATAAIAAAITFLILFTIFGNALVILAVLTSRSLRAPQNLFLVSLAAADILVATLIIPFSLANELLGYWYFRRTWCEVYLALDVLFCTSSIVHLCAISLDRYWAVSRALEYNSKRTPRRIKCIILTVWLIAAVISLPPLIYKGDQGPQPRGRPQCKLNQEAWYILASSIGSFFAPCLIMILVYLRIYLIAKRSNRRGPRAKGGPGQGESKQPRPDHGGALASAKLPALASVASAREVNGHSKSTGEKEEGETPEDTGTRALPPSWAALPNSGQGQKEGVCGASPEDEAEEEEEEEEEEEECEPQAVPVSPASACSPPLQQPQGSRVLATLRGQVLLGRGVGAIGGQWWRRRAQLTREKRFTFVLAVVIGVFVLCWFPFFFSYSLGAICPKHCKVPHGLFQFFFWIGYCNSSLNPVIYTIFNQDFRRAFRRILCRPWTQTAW
Description: α2 -Adrenoceptor-Mediated Inhibition of Forskolin Stimulated Adenylyl Cyclase
The agonist activity of test compounds was assayed by measuring their ability to inhibit adenylyl cyclase in cells stably transfected with each of the three cloned human α2 -adrenoceptors. LM(tk-) cells expressing the α2A - or the α2C -, as well as Y1 cells expressing the α2B -adrenoceptor were used. […] The formation of cyclic AMP was measured in cultures incubated with DMEM containing 1 mM theophylline. Twelve concentrations of the test compounds (from 10 pM to 100 μM) were added to the incubation medium and incubated at 37° C. for 20 min. Following this incubation step, 10 μM forskolin was added to stimulate the formation of cyclic AMP, and the cultures were incubated for another 10 min. The reaction was stopped by replacing the incubation medium with 100 mM HCl . The intracellular levels of cyclic AMP were measured by radioimmunoassay. The data from concentration-response curves was fitted to a four-parameter logistic equation, by non-linear regression analysis, to determine the pEC50 and intrinsic activity.

human α1B adrenoceptor = biological target: T2, human α1B adrenoceptor (Homo sapiens, UniProt P35368); experiment: Radioligand binding ([3H]prazosin) at cloned human α1B
T2 construct: The entire coding region of the α1B receptor (1563 bp); expressed in transfected cells
T2 sequence (P35368 1-520): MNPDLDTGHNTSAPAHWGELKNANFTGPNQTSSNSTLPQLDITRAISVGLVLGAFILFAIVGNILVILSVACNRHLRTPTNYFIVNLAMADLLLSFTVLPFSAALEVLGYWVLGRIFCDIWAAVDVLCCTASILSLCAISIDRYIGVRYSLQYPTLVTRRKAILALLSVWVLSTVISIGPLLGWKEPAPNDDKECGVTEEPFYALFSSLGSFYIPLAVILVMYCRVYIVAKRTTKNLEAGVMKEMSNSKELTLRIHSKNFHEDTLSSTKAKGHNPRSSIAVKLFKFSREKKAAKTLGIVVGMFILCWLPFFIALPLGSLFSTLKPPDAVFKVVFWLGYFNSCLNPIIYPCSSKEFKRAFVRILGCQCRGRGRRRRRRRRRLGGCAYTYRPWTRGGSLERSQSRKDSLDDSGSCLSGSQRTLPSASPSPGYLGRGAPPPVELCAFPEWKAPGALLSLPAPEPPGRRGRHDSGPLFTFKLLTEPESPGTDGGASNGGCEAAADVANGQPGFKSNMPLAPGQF
Description: (§1) These cell lines were prepared by transfecting the cloned cDNA or cloned genomic DNA or constructs containing both genomic DNA and cDNA encoding the human α-adrenoceptors as follows:
The construct involved ligating the full-length containing EcoRI brainstem cDNA fragment from λ ZapII into the expression vector. Stable cell lines were obtained as described above.
(§2) Transfected cells from culture flasks were scraped into 5 ml of 5 mM Tris-HCl, 5 mM EDTA, pH 7.5, and lysed by sonication. The cell lysates were centrifuged at 1000 rpm. for 5 min at 4° C., and the supernatant was centrifuged at 30,000 ×g for 20 min at 4° C. The pellet was suspended in 50 mM Tris-HCl , 1 mM MgCl2, and 0.1% ascorbic acid at pH 7.5. […] The reaction was stopped by filtration through GF/B filters using a cell harvester.

human α1A adrenoceptor = biological target: T3, human α1A adrenoceptor (Homo sapiens, UniProt P25100); experiment: biochemical; type: binding
T3 sequence (P25100 1-572): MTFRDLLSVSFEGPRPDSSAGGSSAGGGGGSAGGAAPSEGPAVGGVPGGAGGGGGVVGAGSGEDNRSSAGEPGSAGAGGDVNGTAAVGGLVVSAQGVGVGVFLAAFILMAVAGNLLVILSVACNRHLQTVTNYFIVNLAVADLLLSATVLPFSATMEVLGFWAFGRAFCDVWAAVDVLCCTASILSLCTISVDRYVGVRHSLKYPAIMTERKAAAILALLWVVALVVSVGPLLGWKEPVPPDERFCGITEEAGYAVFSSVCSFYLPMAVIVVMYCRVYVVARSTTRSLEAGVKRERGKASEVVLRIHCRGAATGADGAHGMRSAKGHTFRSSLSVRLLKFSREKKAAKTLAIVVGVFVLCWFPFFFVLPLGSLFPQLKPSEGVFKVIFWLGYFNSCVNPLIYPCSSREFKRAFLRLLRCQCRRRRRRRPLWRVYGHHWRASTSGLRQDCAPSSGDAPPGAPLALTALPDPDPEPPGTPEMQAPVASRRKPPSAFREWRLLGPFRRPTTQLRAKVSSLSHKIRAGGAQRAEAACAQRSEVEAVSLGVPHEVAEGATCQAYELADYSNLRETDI
Description: as §1
The cells were grown, in a controlled environment (37° C., 5% CO2), as monolayers in Dulbecco's modified Eagle's Medium (GIBCO, Grand Island, N.Y.) containing 25 mM glucose and supplemented with 10% bovine calf serum, 100 units/ml penicillin g, and 100 μg/ml streptomycin sulfate.
as §2

[1] = agonist, inhibition of forskolin stimulated adenylyl cyclase, read-out: pEC50 α2B (converted)
[2] = Table 3, agonists, read-out: pKi α1A (converted)
[3] = relative to reference full agonist (e.g., norepinephrine = unity)
[4] = Table 2, antagonists, versus 3H-prazosin

SMILES | Emax (human α2B adrenoceptor) | EC50 (human α2B adrenoceptor) | Ki (human α1B adrenoceptor) | Ki (human α1A adrenoceptor) | further results
CNCCc1ccc(O)c(NS(C)(=O)=O)c1 [SK&F 102652] | 90% |  |  |  | 
COc1ccc(SC)c2c1C[C@@H]1[C@@H](C2)OCCN1C (relative stereo) [SDZ NVI-085, (±)-trans-4-Methyl-6-methoxy-9-thiomethoxy-3,4,4a, 5,10,10a-hexahydro-2H-naphtho[2,3-b][1,4]oxazine] | 0% |  |  |  | EC50 (human α2B adrenoceptor; [1]): > 100 µM; Ki (human α1B adrenoceptor; Table 3, agonists, read-out: pKi α1B (converted)): 12.6 µM; Ki (human α1A adrenoceptor; [2]): 2 µM
COc1ccccc1N1CCN(CCCNc2c(C)c(=O)n(C)c(=O)n2C)CC1 [Compound 5-MU] |  |  |  |  | Ki (human α1B adrenoceptor; Table 2, antagonists, versus 3H-prazosin, read-out: pKI (antagonist affinity, 3H-prazosin binding) hα1B (converted)): 0.126 µM; Ki (human α1A adrenoceptor; Table 2, antagonists, versus 3H-prazosin, read-out: pKI (antagonist affinity, 3H-prazosin binding) hα1A (converted)): 0.0158 µM
COc1ccc(OC)c(C(O)CN)c1 (racemic) [ST-1059, (±)-2-Amino-1-(2, 5 dimethoxyphenyl) ethanol] | 60% | 0.00251 µM | 12.6 µM | 7.94 µM | 
CNC[C@H](O)c1cccc(O)c1 [(-)-phenylephrine] |  |  |  | 3.98 µM | intrinsic activity (i.a.) α2B (human α2B adrenoceptor; [3]): 0.8
CS(=O)(=O)Nc1c(O)ccc2c1CCCC2C1=NCCN1 (racemic) [Compound A-61603, (±)-N-[5-(4,5-Dihydro-1H-imidazol-2-yl)-2-hydroxy-5,6,7,8-tetra-hydronaphthalen-1-yl]methanesulfonamide] |  |  | 15.8 µM |  | EC50 (human α2B adrenoceptor; [1]): 0.0794 µM; Emax (human α2B adrenoceptor; [3]): 80%; Ki (human α1A adrenoceptor; [2]): 12.6 µM
COc1cc2c(cc1OC)CN(c1cc(N)c3cc(OC)c(OC)cc3n1)CC2 [Abanoquil, 2-(6,7-Dimethoxy-3,4-dihydro-1H-isoquinolin-2-yl)-6,7-dimethoxyquinolin-4-ylamine hemifumarate hydrate] |  |  |  |  | pKI (antagonist affinity, 3H-prazosin binding) hα1B (human α1B adrenoceptor; [4]): 10.1; pKI (antagonist affinity, 3H-prazosin binding) hα1A (human α1A adrenoceptor; [4]): 10.4
CN[C@@H](C)[C@H](O)c1ccccc1 [(-)-ephedrine] | 40% | 0.251 µM | 100 µM | 50.1 µM | 
C[C@H](N)[C@H](O)c1ccccc1 [(-)-norephedrine] | 50% | 0.794 µM | 50.1 µM | 25.1 µM | 
